For 35 molecules, IC50 results are on record in patent publication US8653089B2, “Heterocyclic compounds and methods of use” (F. Hoffmann-La Roche AG, priority 2011, dated 2014).

SMILES strings stand for the structures. Where two headings read alike, the source gives them in different places.

The assay has as its system production of CD69 by B lymphocytes in human whole blood activated by crosslinking surface IgM. Description: CD69 human whole blood assay (Example 903), FACS. In kind it is cell-based. Conditions: B lymphocytes activated with goat F(ab')2 anti-human IgM, read-out: CD69 Hu Blood FACS IC50. The source says:
There is good evidence that B-cells play a key role in the pathogenesis of autoimmune and/or inflammatory disease. Protein-based therapeutics that deplete B cells such as Rituxan are effective against autoantibody-driven inflammatory diseases such as rheumatoid arthritis (Rastetter et al. (2004) Annu Rev Med 55:477). CD69 is the early activation marker in leukocytes including T cells, thymocytes, B cells, NK cells, neutrophils, and eosinophils. The CD69 human whole blood assay (Example 903) determines the ability of compounds to inhibit the production of CD69 by B lymphocytes in human whole blood activated by crosslinking surface IgM with goat F(ab′)2 anti-human IgM.

A word on the IC50: it is the midpoint of a concentration-inhibition curve. Regarding `C[C@H](Nc1ncnc(N)c1C#N)c1nc2ccc(F)c(C(=O)N3CCOCC3)c2n1C1CC1` [Example 401, 4-amino-6-[[(1S)-1-[1-cyclopropyl-6-fluoro-7-(morpholine-4-carbonyl)benzimidazol-2-yl]ethyl]amino]pyrimidine-5-carbonitrile], for the setting “Homo sapiens, Lymphocyte”, the IC50 was 0.0232 µM. In the case of `CC(Nc1ncnc2[nH]cnc12)c1nc2ccc(F)c(O)c2n1-c1ccccc1` (centres unmarked) [Example 327, 5-Fluoro-3-phenyl-2-[1-(9H-purin-6-ylamino)-ethyl]-3H-benzoimidazol-4-ol], the 50% inhibitory concentration (IC50) (Homo sapiens, Lymphocyte) was found to be 0.196 µM. The same measure, in the same setting: the same measure for `CC(Nc1ncnc2[nH]cnc12)c1nc2ccc(F)cc2n1-c1ccccc1F` (centres unmarked) [Example 195, {1-[6-Fluoro-1-(2-fluoro-phenyl)-1H-benzoimidazol-2-yl]-ethyl}-(9H-purin-6-yl)-amine]: 0.053 µM. Turning to `CC(C)n1c([C@H](C)Nc2ncnc(N)c2C#N)nc2ccc(F)c(-c3ccccn3)c21` [Example 408, 4-amino-6-[[(1S)-1-[6-fluoro-1-isopropyl-7-(2-pyridyl)benzimidazol-2-yl]ethyl]amino]pyrimidine-5-carbonitrile], the IC50 (Homo sapiens, Lymphocyte) came to 0.163 µM.

On to `CC(Nc1ncnc2[nH]cnc12)c1nc2ccc(F)c(C#N)c2n1-c1ccccc1` (centres unmarked) [Example 217, 5-Fluoro-3-phenyl-2-[1-(9H-purin-6-ylamino)-ethyl]-3H-benzoimidazole-4-carbonitrile], for which the IC50 (Homo sapiens, Lymphocyte) was 0.0433 µM. On the same count and under the same terms, the value for `OCC[C@H](Nc1ncnc2[nH]cnc12)c1nc2ccc(F)cc2n1-c1ccccc1` [Example 187, (S)-3-(6-Fluoro-1-phenyl-1H-benzoimidazol-2-yl)-3-(9H-purin-6-ylamino)-propan-1-ol] was 0.119 µM. On to `CC(Nc1ncnc2[nH]cnc12)c1nc2ccc(F)cc2n1-c1cccnc1` (centres unmarked) [Example 176, [1-(6-Fluoro-1-pyridin-3-yl-1H-benzoimidazol-2-yl)-ethyl]-(9H-purin-6-yl)-amine], for which the concentration for half-maximal inhibition (IC50) came out at 0.0629 µM.

In the case of `C[C@H](Nc1ncnc(N)c1C#N)c1nc2ccc(F)c(C3CC3)c2n1-c1cccnc1` [Example 306, 4-Amino-6-[(S)-1-(7-cyclopropyl-6-fluoro-1-pyridin-3-yl-1H-benzoimidazol-2-yl)-ethylamino]-pyrimidine-5-carbonitrile], the IC50 (Homo sapiens, Lymphocyte) came out at 0.00287 µM. As to `CC(C)n1c([C@H](C)Nc2ncnc3[nH]cnc23)nc2ccc(F)c(-c3ccccn3)c21` [Example 409, N-[(1S)-1-[6-fluoro-1-isopropyl-7-(2-pyridyl)benzimidazol-2-yl]ethyl]-9H-purin-6-amine], the half-maximal inhibitory concentration (IC50) (Homo sapiens, Lymphocyte) came out at 0.0642 µM. On the same count and under the same terms, the same measure for `OCC[C@H](Nc1ncnc2[nH]cnc12)c1nc2ccc(F)cc2n1-c1ccccn1` [Example 304, (S)-3-(6-Fluoro-1-pyridin-2-yl-1H-benzoimidazol-2-yl)-3-(9H-purin-6-ylamino)-propan-1-ol]: 0.172 µM; for `COC[C@H](Nc1ncnc2[nH]cnc12)c1nc2ccc(F)cc2n1-c1ccccn1` [Example 270, [(R)-1-(6-Fluoro-1-pyridin-2-yl-1H-benzoimidazol-2-yl)-2-methoxy-ethyl]-(9H-purin-6-yl)-amine]: 0.152 µM; for `C[C@H](Nc1ncnc(N)c1C#N)c1nc2cccnc2n1-c1ccccc1` [Example 337, 4-Amino-6-[(S)-1-(3-phenyl-3H-imidazo[4,5-b]pyridin-2-yl)-cthylamino]-pyrimidine-5-carbonitrile]: 0.0966 µM. Same read-out and setting: the same measure for `C[C@H](Nc1ncnn2ccnc12)c1nc2ccc(F)cc2n1-c1ccccn1` [Example 322, [(S)-1-(6-Fluoro-1-pyridin-2-yl-1H-benzoimidazol-2-yl)-ethyl]-imidazo[2,1-f][1,2,4]triazin-4-yl-amine]: 0.145 µM; for `C[C@H](Nc1ncnc(N)c1C#N)c1nc2ccc(F)cc2n1-c1ccn(C)n1` [Example 402, 4-amino-6-[[(1S)-1-[6-fluoro-1-(1-methylpyrazol-3-yl)benzimidazol-2-yl]ethyl]amino]pyrimidine-5-carbonitrile]: 0.0647 µM. On the same count and under the same terms, the same measure for `CC[C@H](Nc1ncnc(N)c1C#N)c1nc2ccc(F)cc2n1-c1cncc(F)c1` [Example 350, 4-Amino-6-{(S)-1-[6-fluoro-1-(5-fluoro-pyridin-3-yl)-1H-benzoimidazol-2-yl]-propylamino}-pyrimidine-5-carbonitrile]: 0.0839 µM; for `C[C@H](Nc1ncnc(N)c1C#N)c1nc2ccc(F)c(Br)c2n1-c1cccnc1` [Example 301, 4-Amino-6-[(S)-1-(7-bromo-6-fluoro-1-pyridin-3-yl-1H-benzoimidazol-2-yl)-ethylamino]-pyrimidine-5-carbonitrile]: 0.0341 µM. Consider `C[C@H](Nc1ncnc2[nH]cnc12)c1nc2ccc(F)cc2n1-c1cncc(F)c1` [Example 260, {(S)-1-[6-Fluoro-1-(5-fluoro-pyridin-3-yl)-1H-benzoimidazol-2-yl]-ethyl}-(9H-purin-6-yl)-amine], for which the half-maximal inhibitory concentration (IC50) (Homo sapiens, Lymphocyte) was determined as 0.0257 µM. Turning to `CC(Nc1ncnc2[nH]cnc12)c1nc2ccc(F)c(C#N)c2n1-c1ccccc1` (centres unmarked) [Example 189, 5-Fluoro-3-phenyl-2-[1-(9H-purin-6-ylamino)-ethyl]-3H-benzoimidazole-4-carbonitrile], the IC50 is 0.0395 µM. As to `C[C@H](Nc1ncnc2[nH]cnc12)c1nc2ccc(F)cc2n1C1CCCCC1` [Example 201, [(S)-1-(1-Cyclohexyl-6-fluoro-1H-benzoimidazol-2-yl)-ethyl]-(9H-purin-6-yl)-amine], the concentration for half-maximal inhibition (IC50) (Homo sapiens, Lymphocyte) worked out at 0.118 µM. Consider `CC(Nc1ncnc2[nH]cnc12)c1nc2ccc(F)cc2n1-c1ccc(C#N)cc1` (centres unmarked) [Example 227, 4-{6-Fluoro-2-[1-(9H-purin-6-ylamino)-ethyl]-benzoimidazol-1-yl}-benzonitrile], for which the IC50 (Homo sapiens, Lymphocyte) stood at 0.0783 µM. Still for that read-out and setting: the value for `C[C@H](Nc1ncnc(N)c1C#N)c1nc2cccc(C3CC3)c2n1-c1cccnc1` [Example 299, 4-Amino-6-[(S)-1-(7-cyclopropyl-1-pyridin-3-yl-1H-benzoimidazol-2-yl)-ethylamino]-pyrimidine-5-carbonitrile] was 0.0355 µM; that for `C[C@H](Nc1ccncc1C#N)c1nc2ccc(F)cc2n1-c1ccccc1` [Example 312, 4-[(S)-1-(6-Fluoro-1-phenyl-1H-benzoimidazol-2-yl)-ethylamino]-nicotinonitrile] was 3.9 µM. In the case of `CC(C)N1CC(n2c([C@H](C)Nc3ncnc4[nH]cnc34)nc3ccc(F)cc32)C1` [Example 380, N-[(1S)-1-[6-fluoro-1-(1-isopropylazetidin-3-yl)benzimidazol-2-yl]ethyl]-9H-purin-6-amine], the IC50 (Homo sapiens, Lymphocyte) is 0.0582 µM. With `CC(Nc1ncnc2[nH]cnc12)c1nc2ccc(F)cc2n1-c1ccccn1` (centres unmarked) [Example 182, [1-(6-Fluoro-1-pyridin-2-yl-1H-benzoimidazol-2-yl)-ethyl]-(9H-purin-6-yl)-amine], the concentration for half-maximal inhibition (IC50) stood at 0.0671 µM.

For `Cc1nc(N)nc(N[C@@H](C)c2nc3ccc(F)cc3n2-c2ccccc2)c1C#N` [Example 328, 2-Amino-4-[(S)-1-(6-fluoro-1-phenyl-1H-benzoimidazol-2-yl)-ethylamino]-6-methyl-pyrimidine-5-carbonitrile], the 50% inhibitory concentration (IC50) (Homo sapiens, Lymphocyte) amounted to 0.00344 µM. On the same count and under the same terms, the same measure for `CC(C)C(Nc1ncnc2[nH]cnc12)c1nc2ccc(F)cc2n1-c1cccnc1` (centres unmarked) [Example 206, [1-(6-Fluoro-1-pyridin-3-yl-1H-benzoimidazol-2-yl)-2-methyl-propyl]-(9H-purin-6-yl)-amine]: 0.0547 µM; for `COCC(Nc1ncnc2[nH]cnc12)c1nc2ccc(F)c(F)c2n1-c1ccccc1` (centres unmarked) [Example 190, [1-(6,7-Difluoro-1-phenyl-1H-benzoimidazol-2-yl)-2-methoxy-ethyl]-(9H-purin-6-yl)-amine]: 0.247 µM. Same read-out and setting: the same measure for `CC(Nc1ncnc2[nH]cnc12)c1nc2ccc(F)c(Cl)c2n1-c1ccccc1` (centres unmarked) [Example 179, [1-(7-Chloro-6-fluoro-1-phenyl-1H-benzoimidazol-2-yl)-ethyl]-(9H-purin-6-yl)-amine]: 0.146 µM; for `C[C@H](Nc1ncnc(N)c1C#N)c1nc2ccc(F)c(-c3ccccn3)c2n1C1CC1` [Example 442, 4-Amino-6-[(S)-1-(1-cyclopropyl-6-fluoro-7-pyridin-2-yl-1H-benzoimidazol-2-yl)ethylamino]-pyrimidine-5-carbonitrile]: 0.797 µM; for `C[C@H](Nc1ncnc2[nH]cnc12)c1nc2ccc(F)cc2n1-c1ccc2c(c1)OCO2` [Example 320, [(S)-1-(l-Benzo[1,3]dioxol-5-yl-6-fluoro-1H-benzoimidazol-2-yl)-ethyl]-(9H-purin-6-yl)-amine]: 0.253 µM. Still for that read-out and setting: the same measure for `CC(Nc1ncnc(N)c1C#N)c1nc2cccnc2n1-c1ccccc1` (centres unmarked) [Example 302, 4-Amino-6-[1-(3-phenyl-3H-imidazo[4,5-b]pyridin-2-yl)-ethylamino]-pyrimidine-5-carbonitrile]: 0.189 µM; for `CC(Nc1ncnc2[nH]cnc12)c1nc2ccc(F)cc2n1-c1cncc(F)c1` (centres unmarked) [Example 263, {1-[6-Fluoro-1-(5-fluoro-pyridin-3-yl)-1H-benzoimidazol-2-yl]-ethyl}-(9H-purin-6-yl)-amine]: 0.0254 µM. As to `C[C@H](Nc1ncnc2[nH]cnc12)c1nc2ccc(Cl)cc2n1-c1ccccc1` [Example 173, [(S)-1-(6-Chloro-1-phenyl-1H-benzoimidazol-2-yl)-ethyl]-(9H-Aurin-6-yl)-amine], where the note is “Homo sapiens, Lymphocyte”, the concentration for half-maximal inhibition (IC50) was found to be 0.301 µM. Still for that read-out and setting: the value for `Cc1nccc(N[C@@H](C)c2nc3ccc(F)cc3n2-c2ccccc2)c1C#N` [Example 340, 4-[(S)-1-(6-Fluoro-1-phenyl-1H-benzoimidazol-2-yl)-ethylamino]-2-methyl-nicotinonitrile] was 0.606 µM. Consider `CC(Nc1ncnc2[nH]cnc12)c1nc2ccc(F)cc2n1-c1ccc(C#N)cc1` (centres unmarked) [Example 248, 4-{6-Fluoro-2-[1-(9H-purin-6-ylamino)-ethyl]-benzoimidazol-1-yl}-benzonitrile], for which the 50% inhibitory concentration (IC50) is 0.0789 µM.
